Measurements: paper PMC11193748 (Communications Biology, 2024)
Like-named read-outs stand apart in the source and are kept apart here.

Experiments:
LcsG = target: T1, LcsG (Purpureocillium lilacinum, UniProt A0A179H2P2); experiment: Michaelis-Menten enzyme kinetics of LcsG with leucinostatin substrates; type: biochemical, Purpureocillium lilacinum PLBJ-1; details: for Kcat/Km: compound as substrate of LcsG, from the Michaelis-Menten fit; for Kcat / Km: compound as substrate, 1 μM LcsG, 34 °C, 30 min, product formation by LC-MS, nonlinear regression, n = 3
T1 construct: pACYC-lcsG was generated by integrating the lcsG gene from the PLBJ-1 cDNA into the protein expression vector pACYCDuet-1; His6 (N); His6 (C); made in house; host or cells: E. coli ArcticExpress (DE3)
T1 sequence (A0A179H2P2 1-468): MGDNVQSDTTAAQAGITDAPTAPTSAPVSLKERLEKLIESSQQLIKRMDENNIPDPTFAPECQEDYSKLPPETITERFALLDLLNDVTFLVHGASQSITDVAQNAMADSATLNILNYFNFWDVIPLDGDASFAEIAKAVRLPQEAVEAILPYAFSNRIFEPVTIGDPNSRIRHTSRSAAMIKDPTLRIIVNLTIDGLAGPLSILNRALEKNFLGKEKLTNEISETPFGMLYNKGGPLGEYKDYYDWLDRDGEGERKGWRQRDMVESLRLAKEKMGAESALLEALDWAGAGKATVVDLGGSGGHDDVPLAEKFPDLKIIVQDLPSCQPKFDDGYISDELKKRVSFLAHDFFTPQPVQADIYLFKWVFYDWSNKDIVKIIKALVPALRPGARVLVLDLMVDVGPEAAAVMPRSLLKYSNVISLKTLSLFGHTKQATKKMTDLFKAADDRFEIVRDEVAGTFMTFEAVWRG
Description: The compounds were quantified by an external standard method and calibration curves were constructed using LeuA0 and LeuK3. In this study, LeuA0 was diluted to concentrations of 25, 50, 100, 250, and 500 nM. LeuK3 was also diluted to concentrations of 50, 100, 250, 500, and 1000 nM. Dilutions were prepared in MeCN, and calibration curves were constructed using the software GraphPad Prism 9.
The kinetic constants of LcsG were determined by the following approach: 1 μM LcsG was assayed against different specific concentrations of the substrates LeuA (2, 4, 8, 10, 20, 40, 80, 100, 120, 150, and 200 μM) and LeuK0 (4, 8, 10, 20, 40, 80, 100, 120, 140, and 160 μM). The initial rate of the reaction was measured by monitoring the formation of products (LeuA0 or LeuK3) at 34 °C for 30 min. The rates were plotted against substrate concentration using the Michaelis‒Menten kinetics equation by nonlinear regression analysis with the software GraphPad Prism 9, and Km and Kcat constants were generated from the resulting Michaelis‒Menten plot.
LC‒MS analyses were performed on an Agilent 1290 Infinity II HPLC with an Agilent Infinity Lab single quadrupole mass selective detector by using an Agilent Zorbax Eclipse Plus C18 reversed-phase column (2.1 × 100 mm, 2.7 μm). Water (A) with 0.1% (v/v) formic acid and acetonitrile (B) were used as the solvents at a flow rate of 0.25 ml min^−1. The substances were eluted with 10% (v/v) B for 1 min, subjected to a linear gradient from 10 to 100% (v/v) B for 12 min, washed with 100% solvent B for 5 min, and equilibrated with 5% solvent B for 10 min at a flow rate of 0.25 ml/min. The mass spectrometer was set in electrospray positive ion mode for ionization.

C. neoformans = details: cited from earlier work
P. infestans [1] = details: cited from earlier work
P. infestans [2] = tested on: P. infestans

In the case of leucinostatin A [LeuA], the Kcat/Km (LcsG) is reported as 65.39 s⁻¹ M⁻¹, the Kcat (LcsG) is reported as 0.00075 s⁻¹ and the Km (LcsG) is reported as 11.5 µM. For the same substance, the “inhibitory effects on C. neoformans” value (C. neoformans) was “inhibitory effects” and the “inhibitory effects on P. infestans” value (P. infestans [1]) was “inhibitory effects”.

For leucinostatin B [LeuB], the “inhibitory effects on C. neoformans” value (C. neoformans) is given as “inhibitory effects” and the “inhibitory effects on P. infestans” value (P. infestans [1]; previous studies) is given as “inhibitory effects”.

leucinostatin K0 [LeuK0] gave a Kcat/Km (LcsG) of 32.94 s⁻¹ M⁻¹, a Kcat (LcsG) of 0.00624 s⁻¹ and a Km (LcsG) of 189 µM. The “growth inhibition, agar diffusion assay” value (C. neoformans H99) was “inhibitory effects” and the “growth inhibition, agar diffusion assay” value (P. infestans [2]) was “inhibitory effects”.
